The subject of the assay is NCED3 transgenic seeds. In words: GA3 treatment: germination of NCED3 transgenic R2 seeds on growth medium containing GA3. The assay is classed as in vivo, rice. Here is the method: GA3 treatment: R2 seeds were surface-sterilized with 20% bleach and germinated on half-strength MS containing 0.4 mL/L Finale and filter-sterilized GA3 (gibberellin) to final concentrations of 0, 10, 100, 250, 500 or 1,000 μM.
ABA and GA3 (gibberellin) can act antagonistically in seed germination. To determine whether GA3 could release the prolonged dormancy evident in the NCED3 transgenic seeds, GA3 was added to the growth medium on which the seeds were placed for germination. […] Thus, addition of exogenous of GA3 can, at least in part, overcome the off-type of prolonged dormancy.

In the case of `C=C1C[C@]23C[C@@]1(O)CC[C@H]2[C@@]12C=C[C@H](O)[C@@](C)(C(=O)O1)[C@H]2[C@@H]3C(=O)O` [GA3], the “seed germination (release of prolonged dormancy)” value (GA3 at a concentration as low as 10 μM in the growth medium) is listed as “accelerated germination”. The seedling elongation result (higher concentrations of GA3) was “more elongated”. Also, the seed germination result (higher concentrations of GA3 (100-1,000 μM) compared with 10 μM) is reported as “did not significantly improve seed germination”.
